# In PubChem BioAssay AID1963844 (Molecular Pharmacology Branch, DTP, NCI, 2024):
# System: 422866-222-R5-J1-PDC complex spheroid viability
# Assay: Anticancer human tumor 422866-222-R5-J1-PDC patient-derived pancreatic adenocarcinoma cell line growth inhibition [POLQ]
# Conditions: for IC50: curve of first compound; for viability, T/C: stronger effect = lower value
# Procedure, shortened: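 Patient-derived tumour cells were co-cultured with HUVEC and mesenchymal stem cells as multicellular spheroids at 37 °C. They were treated with POLQ inhibitors (novobiocin, ART-558, RP6685) alone or combined with other agents. Top concentrations were at or near clinical Cmax (otherwise 10 microM; SN-38 at 1 microM), decreasing in half-log steps.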
# [1] = second compound 0.0316 µM, first compound 0.0316 µM
# [2] = second compound 0.0316 µM, first compound 0.1 µM
# [3] = second compound 0.0316 µM, first compound 0.316 µM
# [4] = second compound 0.0316 µM, first compound 1 µM
# [5] = second compound 0.0316 µM, first compound 3.16 µM
# [6] = second compound 0.0316 µM, first compound 10 µM
# [7] = second compound 0.1 µM, first compound 0.0316 µM
# [8] = second compound 0.1 µM, first compound 0.1 µM
# [9] = second compound 0.1 µM, first compound 0.316 µM
# [10] = second compound 0.1 µM, first compound 1 µM
# [11] = second compound 0.1 µM, first compound 3.16 µM
# [12] = second compound 0.1 µM, first compound 10 µM
# [13] = second compound 0.316 µM, first compound 0.0316 µM
# [14] = second compound 0.316 µM, first compound 0.1 µM
# [15] = second compound 0.316 µM, first compound 0.316 µM
# [16] = second compound 0.316 µM, first compound 1 µM
# [17] = second compound 0.316 µM, first compound 3.16 µM
# [18] = second compound 0.316 µM, first compound 10 µM
# [19] = second compound 1 µM, first compound 0.0316 µM
# [20] = second compound 1 µM, first compound 0.1 µM
# [21] = second compound 1 µM, first compound 0.316 µM
# [22] = second compound 1 µM, first compound 1 µM
# [23] = second compound 1 µM, first compound 3.16 µM
# [24] = second compound 1 µM, first compound 10 µM
# [25] = second compound 3.16 µM, first compound 0.0316 µM
# [26] = second compound 3.16 µM, first compound 0.1 µM
# [27] = second compound 3.16 µM, first compound 0.316 µM
# [28] = second compound 3.16 µM, first compound 1 µM
# [29] = second compound 3.16 µM, first compound 3.16 µM
# [30] = second compound 3.16 µM, first compound 10 µM
# [31] = second compound 10 µM, first compound 0.0316 µM
# [32] = second compound 10 µM, first compound 0.1 µM
# [33] = second compound 10 µM, first compound 0.316 µM
# [34] = second compound 10 µM, first compound 1 µM
# [35] = second compound 10 µM, first compound 3.16 µM
# [36] = second compound 10 µM, first compound 10 µM
# 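Note: spheroids exposed to compounds for one week before readout.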
# 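Throughout, for viability, T/C: percent of DMSO vehicle wells luminescence so 100% = untreated viability.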
smiles,measurement,setting,value
CC(=O)O[C@H]1C(=O)[C@@]2(C)[C@H]([C@H](OC(=O)c3ccccc3)[C@]3(O)C[C@H](OC(=O)[C@H](O)[C@@H](NC(=O)c4ccccc4)c4ccccc4)C(C)=C1C3(C)C)[C@]1(OC(C)=O)CO[C@@H]1C[C@@H]2O + Cc1cccc(N(C)C(=O)C2C(O)CCN2c2nc(C)cc(C(F)(F)F)c2C#N)c1,IC50,second compound 0.0316 µM,< 9.49 nM
same,IC50,second compound 0.1 µM,> 3000 nM
same,IC50,second compound 0.316 µM,> 3000 nM
same,IC50,second compound 1 µM,< 9.49 nM
same,IC50,second compound 3.16 µM,> 3000 nM
same,IC50,second compound 10 µM,< 9.49 nM
same,"viability, T/C","second compound 0.0316 µM, first compound 0.00949 µM",48.8%
same,"viability, T/C","second compound 0.0316 µM, first compound 0.03 µM",47.8%
same,"viability, T/C","second compound 0.0316 µM, first compound 0.0949 µM",44.6%
same,"viability, T/C","second compound 0.0316 µM, first compound 0.3 µM",53%
same,"viability, T/C","second compound 0.0316 µM, first compound 0.949 µM",52.6%
same,"viability, T/C","second compound 0.0316 µM, first compound 3 µM",56%
same,"viability, T/C","second compound 0.1 µM, first compound 0.00949 µM",54%
same,"viability, T/C","second compound 0.1 µM, first compound 0.03 µM",47.9%
same,"viability, T/C","second compound 0.1 µM, first compound 0.0949 µM",58.1%
same,"viability, T/C","second compound 0.1 µM, first compound 0.3 µM",50.2%
same,"viability, T/C","second compound 0.1 µM, first compound 0.949 µM",49.4%
same,"viability, T/C","second compound 0.1 µM, first compound 3 µM",52.6%
same,"viability, T/C","second compound 0.316 µM, first compound 0.00949 µM",54%
same,"viability, T/C","second compound 0.316 µM, first compound 0.03 µM",51.9%
same,"viability, T/C","second compound 0.316 µM, first compound 0.0949 µM",55.2%
same,"viability, T/C","second compound 0.316 µM, first compound 0.3 µM",46.3%
same,"viability, T/C","second compound 0.316 µM, first compound 0.949 µM",52.3%
same,"viability, T/C","second compound 0.316 µM, first compound 3 µM",56.6%
same,"viability, T/C","second compound 1 µM, first compound 0.00949 µM",49.8%
same,"viability, T/C","second compound 1 µM, first compound 0.03 µM",41.3%
same,"viability, T/C","second compound 1 µM, first compound 0.0949 µM",51.9%
same,"viability, T/C","second compound 1 µM, first compound 0.3 µM",55.6%
same,"viability, T/C","second compound 1 µM, first compound 0.949 µM",50.9%
same,"viability, T/C","second compound 1 µM, first compound 3 µM",59.8%
same,"viability, T/C","second compound 3.16 µM, first compound 0.00949 µM",57.5%
same,"viability, T/C","second compound 3.16 µM, first compound 0.03 µM",46.9%
same,"viability, T/C","second compound 3.16 µM, first compound 0.0949 µM",59.7%
same,"viability, T/C","second compound 3.16 µM, first compound 0.3 µM",49.8%
same,"viability, T/C","second compound 3.16 µM, first compound 0.949 µM",57.8%
same,"viability, T/C","second compound 3.16 µM, first compound 3 µM",67.8%
same,"viability, T/C","second compound 10 µM, first compound 0.00949 µM",47.7%
same,"viability, T/C","second compound 10 µM, first compound 0.03 µM",48%
same,"viability, T/C","second compound 10 µM, first compound 0.0949 µM",42.9%
same,"viability, T/C","second compound 10 µM, first compound 0.3 µM",51.6%
same,"viability, T/C","second compound 10 µM, first compound 0.949 µM",64.9%
same,"viability, T/C","second compound 10 µM, first compound 3 µM",68.3%
C#Cc1c(F)ccc2cc(O)cc(-c3ncc4c(N5CC6CCC(C5)N6)nc(OCC56CCCN5CC(F)C6)nc4c3F)c12 (stereo unspecified) + Nc1ccc(C#CCN(C(=O)Cc2ncc(C(F)(F)F)cc2C(F)(F)F)c2ccc(F)cc2)nn1,IC50,second compound 0.0316 µM,733 nM
same,IC50,second compound 0.1 µM,727 nM
same,IC50,second compound 0.316 µM,813 nM
same,IC50,second compound 1 µM,750 nM
same,IC50,second compound 3.16 µM,646 nM
same,IC50,second compound 10 µM,619 nM
same,"viability, T/C",[1],95.4%
same,"viability, T/C",[2],103%
same,"viability, T/C",[3],62.8%
same,"viability, T/C",[4],48.7%
same,"viability, T/C",[5],26.8%
same,"viability, T/C",[6],26%
same,"viability, T/C",[7],101%
same,"viability, T/C",[8],71.5%
same,"viability, T/C",[9],67.6%
same,"viability, T/C",[10],43.4%
same,"viability, T/C",[11],32.1%
same,"viability, T/C",[12],21.7%
same,"viability, T/C",[13],88.2%
same,"viability, T/C",[14],78.4%
same,"viability, T/C",[15],66.2%
same,"viability, T/C",[16],44.3%
same,"viability, T/C",[17],37.1%
same,"viability, T/C",[18],27.9%
same,"viability, T/C",[19],102%
same,"viability, T/C",[20],89.4%
same,"viability, T/C",[21],67.4%
same,"viability, T/C",[22],44.3%
same,"viability, T/C",[23],30.6%
same,"viability, T/C",[24],26%
same,"viability, T/C",[25],93.1%
same,"viability, T/C",[26],93%
same,"viability, T/C",[27],57%
same,"viability, T/C",[28],48.2%
same,"viability, T/C",[29],26.6%
same,"viability, T/C",[30],27.9%
same,"viability, T/C",[31],89.6%
same,"viability, T/C",[32],92.2%
same,"viability, T/C",[33],62.3%
same,"viability, T/C",[34],41.7%
same,"viability, T/C",[35],35.3%
same,"viability, T/C",[36],27.7%
O=C(Nc1ccc(O)c(NS(=O)(=O)c2ccc(F)cc2)c1)c1ccc(-c2ccccc2)cc1 + Nc1ccc(C#CCN(C(=O)Cc2ncc(C(F)(F)F)cc2C(F)(F)F)c2ccc(F)cc2)nn1,IC50,second compound 0.0316 µM,> 10000 nM
same,IC50,second compound 0.1 µM,> 10000 nM
same,IC50,second compound 0.316 µM,> 10000 nM
same,IC50,second compound 1 µM,> 10000 nM
same,IC50,second compound 3.16 µM,> 10000 nM
same,IC50,second compound 10 µM,> 10000 nM
same,"viability, T/C",[1],98.8%
same,"viability, T/C",[2],84.9%
same,"viability, T/C",[3],81.6%
same,"viability, T/C",[4],86.9%
same,"viability, T/C",[5],83.7%
same,"viability, T/C",[6],113%
same,"viability, T/C",[7],105%
same,"viability, T/C",[8],94.3%
same,"viability, T/C",[9],97.1%
same,"viability, T/C",[10],90.5%
same,"viability, T/C",[11],99.8%
same,"viability, T/C",[12],123%
same,"viability, T/C",[13],88.7%
same,"viability, T/C",[14],90%
same,"viability, T/C",[15],94.2%
same,"viability, T/C",[16],89.9%
same,"viability, T/C",[17],97.3%
same,"viability, T/C",[18],116%
same,"viability, T/C",[19],107%
same,"viability, T/C",[20],84.5%
same,"viability, T/C",[21],92.6%
same,"viability, T/C",[22],87.9%
same,"viability, T/C",[23],88.6%
same,"viability, T/C",[24],117%
same,"viability, T/C",[25],107%
same,"viability, T/C",[26],99%
same,"viability, T/C",[27],99.6%
same,"viability, T/C",[28],78.7%
same,"viability, T/C",[29],103%
same,"viability, T/C",[30],109%
same,"viability, T/C",[31],105%
same,"viability, T/C",[32],85.2%
same,"viability, T/C",[33],80.8%
same,"viability, T/C",[34],93.8%
same,"viability, T/C",[35],101%
same,"viability, T/C",[36],102%
